From patent US20210251228A1, “METHODS FOR REPELLING DROSOPHILA SPECIES USING 2-PENTYLFURAN” (The United States of America, as represented by the …, priority 2020, published 2021)

Key:
Type in all cases: in vivo
Drosophila suzukii [1] = assay: Multiple-choice bioassay: EAD-active compound added to 4-component SWD lure in gated cup traps
Method: Multiple-Choice Bioassay: The multiple choice assay (N=8) was conducted with an arena design using a dome cage (60 cm W×60 cm L×60 cm H; BugDorm-2120 Insect tent; shop.bugdorm.com) as described in Cha et al. 2018b (Cha, D. H., et al., Environ. Entomol., 47: 946-950 (2018b)) to evaluate the effect of the individual EAD-active compounds (FIG. 1) on SWD attraction to previously identified 4-component SWD lure (Cha et al. 2012; Cha, D. H., et al., Pest Manag. Sci., 70: 324-331 (2014); Cha, D. H., et al., Environ. Entomol., 46: 907-915 (2017)). Among 18 EAD-active compounds in FIG. 1, acetoin, 1-hexanol, isoamyl acetate, 2-methylbutyl acetate, and 2-phenylethanol were previously tested for their behavioral effects (Cha et al. 2012, 2014) and not considered in this study. Therefore, we compared 13 EAD-active compounds in this study. Within each arena, 14 traps were positioned in a circle (40 cm diameter) at equal distance with each trap 9 cm apart along the circumference. We used an aluminum foil-covered 100-ml glass beaker with a cut centrifuge vial (0.7 cm diameter) inserted in the foil for SWD entry, as a trap (Cha et al. 2012). All 14 traps had the SWD lure comprised of acetic acid, ethanol, acetoin, and methionol. Acetic acid and ethanol were released from a 20 ml solution of 4% acetic acid+8% ethanol with soap, presented as a drowning solution in each trap. Acetoin (1 ml of 50% acetoin in water) and methionol (0.5 ml neat methionol) were individually released from two 1.5-ml vials with 3-mm hole on the lid with a piece of cotton as described in Cha et al. 2014. One of these 14 traps served as a control (with the 4-component SWD lure only) and the remaining 13 traps had one of the 13 EAD-active compounds added to the SWD-lure, loaded as described in Cha et al. 2012 and released from a 1.5-ml vial with 3-mm hole with a piece of cotton. […] The number of flies inside treatment and control traps was counted after 20 h.
(§1) Statistical Analyses: Trap catch data from multiple-choice assay and two-choice assay were analyzed in a randomized block design with block as a random factor and different EAD-active compounds as a fixed factor using Poisson distribution with log link function and maximum likelihood estimation (Proc Glimmix, SAS Institute, SAS/STAT 9.2 User's Guide, Second Edition, 2009, SAS Institute Inc., Cary, N.C.). Oviposition data from (1) laboratory dose-response test, (2) semi-field cage choice test, and (3) first and second field experiments were also analyzed in a randomized block design with block as a random factor and different 2-pentylfuran treatments as a fixed factor using Poisson distribution with log link function and maximum likelihood estimation. […]

Drosophila suzukii [2] = assay: Field test 1: unknown release rate of 2-pentylfuran, SWD oviposition on field raspberries; conditions: 0.5 ml 50% 2-pentylfuran in mineral oil in vial, 3 days, N=16
Method: Field Test 1: Effect of Unknown Release Rate of 2-Pentylfuran on SWD Oviposition. The objective of this field test was to confirm the repellent activity of 2-pentylfuran under field conditions. This experiment was conducted using a mixed variety planting of fall-bearing raspberries (primocane raspberries) at Cornell AgriTech in Geneva, N.Y. where we randomly assigned 32 fruiting clusters to one of two treatments: 1.5 ml centrifuge vial with 3 mm hole in lid and containing 0.5 ml 50% 2-pentylfuran in 1:1 ratio with mineral oil or vial with mineral oil only (similar to Wallingford et al. 2016a). After three days we collected ripe raspberries from each cluster and monitored SWD emergence over the 2 weeks in the laboratory (25 C, 55% RH, 16:8 L:D).
Statistical Analyses: Trap catch data from multiple-choice assay and two-choice assay were analyzed in a randomized block design with block as a random factor and different EAD-active compounds as a fixed factor using Poisson distribution with log link function and maximum likelihood estimation (Proc Glimmix, SAS Institute, SAS/STAT 9.2 User's Guide, Second Edition, 2009, SAS Institute Inc., Cary, N.C.). […]

Drosophila suzukii [3] = assay: Field cage choice test: SWD oviposition on raspberries in deli cups; conditions: two-choice field cage, 10 mg/h sachet, 24 h, N=4
Method: Field cage choice test: We evaluated the effect of 2-pentylfuran released at 10 mg/h on SWD oviposition in choice oviposition experiment under semi-field condition using flies from SWD lab colony in Hawaii. For this experiment, we used a different, more user-friendly dispenser (polyethylene sachet: see Cha et al. 2017). The 10 mg/h release rate of 2-pentylfuran, inferred from calculating weight loss of loaded dispensers over time as described by Cha et al. 2017 (linear regression between weight of sachet containing 2-pentylfuran (mg) and time (h) during 30 h period: sachet weight=669.1[…]*time, R2=0.99, P<0.0001) was achieved using equilateral triangle shaped sachets made with two layers of polyethylene film (0.0508 mm thickness, Thermwell Products Co., Inc, Mahwah, N.J.) with 5 cm on each side. One 2 cm by 1 cm diameter piece of cotton dental wick was placed into the sachet and 1 ml of neat 2-pentylfuran was loaded onto the dental wick with a syringe. Loaded sachets were sealed using an Impulse heat-sealer (Model MP-12C, Midwest Pacific Inc., St. Louis). […]
as §1

With `CCCCCc1ccco1` [2-pentylfuran] the “reduction of trap catches of SWD” value (Drosophila suzukii [1]; SWD lure + 2-pentylfuran vs SWD lure only (62 SWD/trap)) was 98%, the “negative effect on SWD attraction to the SWD lure compared with 1-octen-3-ol” value (Drosophila suzukii [1]; multiple-choice, 20 h, N=8) was “significantly stronger than 1-octen-3-ol” and the “effect on SWD attraction to (catch in traps baited with) the 4-component SWD lure” value (Drosophila suzukii [1]; one compound added to SWD lure, 14 traps per arena, flies counted after 20 h, N=8) was “greatest reduction”. For the same compound, the “trap catch of SWD” value (Drosophila suzukii [1]; trap with SWD lure + 2-pentylfuran, 20 h) was 1 SWD/trap, the “reduction of number of eggs per raspberry fruit” value (Drosophila suzukii [2]) was 30% and the “reduction of SWD oviposition on raspberries” value (“reduction of SWD oviposition” below) (Drosophila suzukii [3]; deli cups with 25% opening) was 85%. For the same compound, the “reduction of SWD oviposition” value (Drosophila suzukii [3]; deli cups with 50% opening) was 62% and the “reduction of SWD oviposition” value (Drosophila suzukii [3]; deli cups with 75% opening) was 75%.
